Tests used:
Format in all cases: cell-based
[1] = Cytotoxicity by XTT staining in the HBV efficacy assay; conditions: human, HepG2.2.15 cells
Protocol: HepG2.2.15 cells (100 μL) in RPMI1640 medium with 10% fetal bovine serum was added to all wells of a 96-well plate at a density of 1×10^4 cells per well and the plate was incubated at 37° C. in an environment of 5% CO2 for 24 hours. Following incubation, six ten-fold serial dilutions of test compound prepared in RPMI1640 medium with 10% fetal bovine serum were added to individual wells of the plate in triplicate. Six wells in the plate received medium alone as a virus only control. The plate was incubated for 6 days at 37° C. in an environment of 5% CO2. The culture medium was changed on day 3 with medium containing the indicated concentration of each compound. One hundred microliters of supernatant was collected from each well for analysis of viral DNA by qPCR and cytotoxicity was evaluated by XTT staining of the cell culture monolayer on the sixth day.
The 50% cytotoxic concentration for the test materials are derived by measuring the reduction of the tetrazolium dye XTT in the treated tissue culture plates. XTT is metabolized by the mitochondrial enzyme NADPH oxidase to a soluble formazan product in metabolically active cells. XTT solution was prepared daily as a stock of 1 mg/mL in PBS. Phenazine methosulfate (PMS) stock solution was prepared at 0.15 mg/mL in PBS and stored in the dark at −20° C. XTT/PMS solution was prepared immediately before use by adding 40 μL of PMS per 1 mL of XTT solution. Fifty microliters of XTT/PMS was added to each well of the plate and the plate incubated for 2-4 hours at 37° C. The 2-4 hour incubation has been empirically determined to be within linear response range for XTT dye reduction with the indicated numbers of cells for each assay. Adhesive plate sealers were used in place of the lids, the sealed plate was inverted several times to mix the soluble formazan product and the plate was read at 450 nm (650 nm reference wavelength) with a Molecular Devices SpectraMax Plus 384 spectrophotometer. Data were collected by Softmax 4.6 software and imported into an Excel spreadsheet for analysis.

[2] = Cytotoxicity (CC50) Huh-7; conditions: human, Huh-7 cells
[3] = Cytotoxicity (CC50) HepG2; conditions: human, HepG2 cells
[4] = Cytotoxicity (CC50) BxPC3; conditions: human, BxPC3 cells
Cytotoxicity (CC50) CEM = conditions: human, CEM cells
Cytotoxicity (CC50) A204 = conditions: human, A204 cells
[5] = Cytotoxicity (CC50) IEC-6; conditions: rat, IEC-6 cells
Cytotoxicity (CC50) H9c = conditions: rat, H9c cells
Cytotoxicity (CC50) A549 = conditions: human, A549 cells
Cytotoxicity (CC50) Vero = conditions: African green monkey, Vero cells

Compound	CC50 at 6 days [1]	CC50 [2]	CC50 [3]	CC50 [4]	CC50 (Cytotoxicity (CC50) CEM)	CC50 (Cytotoxicity (CC50) A204)	CC50 [5]	CC50 (Cytotoxicity (CC50) H9c)	CC50 (Cytotoxicity (CC50) A549)	CC50 (Cytotoxicity (CC50) Vero)
Nc1ccn([C@@H]2CS[C@H](CO)O2)c(=O)n1 [3TC (Lamivudine), Lamivudine, reference compound]	> 10 µM	> 400 µM	> 400 µM	> 400 µM						
Cc1cn([C@H]2O[C@@H](CO)[C@H](O)[C@H]2F)c(=O)[nH]c1=O [EIDD-02020, Clevudine, reference compound]	> 100 µM	> 400 µM	> 400 µM	> 400 µM	> 400 µM	> 400 µM	> 400 µM	> 400 µM	> 400 µM	> 400 µM
Cc1cn([C@H]2O[C@@H](CO[P@@](=O)(N[C@@H](C)C(=O)OC(C)C)Oc3ccccc3)[C@H](O)[C@H]2F)c(=O)[nH]c1=O [EIDD-02173]	> 100 µM	> 400 µM	> 400 µM	> 400 µM	140 µM	330 µM	307 µM	344 µM	> 400 µM	> 400 µM
Cc1cn([C@H]2O[C@@H](CO[P@](=O)(N[C@@H](C)C(=O)OC(C)C)Oc3ccccc3)[C@H](O)[C@H]2F)c(=O)[nH]c1=O [EIDD-02174]	> 100 µM	290 µM	> 400 µM	> 400 µM	> 400 µM	374 µM	338 µM	311 µM	> 400 µM	> 400 µM
Cc1cn([C@H]2O[C@@H](CO[P@@](=O)(N[C@@H](C)C(=O)OC(C)C)Oc3ccccc3)[C@H](O[P@@](=O)(N[C@@H](C)C(=O)OC(C)C)Oc3ccccc3)[C@H]2F)c(=O)[nH]c1=O [EIDD-02308]	> 100 µM									
Cc1cn([C@H]2O[C@@H](CO[P@](=O)(N[C@@H](C)C(=O)OC(C)C)Oc3ccccc3)[C@H](O[P@](=O)(N[C@@H](C)C(=O)OC(C)C)Oc3ccccc3)[C@H]2F)c(=O)[nH]c1=O [EIDD-02309]	85.1 µM									
Cc1cn([C@H]2O[C@@H](CO)C(O)C2F)c(=S)[nH]c1=O (stereo partly drawn) [EIDD-02333-1]	> 100 µM									
Cc1cn([C@H]2O[C@@H](CO[P@](=O)(N[C@@H](C)C(=O)OC(C)C)Oc3ccccc3)C(O)C2F)c(=S)[nH]c1=O (stereo partly drawn) [EIDD-02334-1]	> 100 µM									
Cc1cn([C@H]2O[C@@H](CO[P@@](=O)(N[C@@H](C)C(=O)OC(C)C)Oc3ccccc3)C(O)C2F)c(=S)[nH]c1=O (stereo partly drawn) [EIDD-02335-1]	> 100 µM									
